In a melting point compilation (Tetko et al.; mined from patent text by program, amines drawn as free bases though some values may be those of a salt) one finds melting point data, which are given here for 91 compounds.

Each structure is given as a SMILES string.

`CCCCc1ccc(/C(Cl)=C/c2ccc(Br)cc2)cc1` had a melting point of 59 to 61 °C.
In the case of `CC(CC(C)(C)C)CP(=O)(O)C1OC(=O)c2ccccc21` (stereo unspecified) it was 117 to 121 °C; in that of `COC(=O)c1c(NC(C)=O)sc2c1CCC(C(C)(C)C)C2` (stereo unspecified), 117 to 118 °C.
`CN(C)CCN1C(=O)c2ccc3[nH]c4ccc(O)cc4c3c2C1=O` showed a melting point of more than 260 °C.
With `COc1ccc(N2CCN(c3c(C)c(C)c4c(c3C)CC(C)(Cn3ccnc3C)O4)CC2)cc1` (stereo unspecified) the figure was 86 to 90 °C; with `CSC(=NC(=O)c1ccccc1)Nc1c(Cl)cccc1Cl`, 127 to 129 °C.
With `CNN1c2c(cc(Oc3ccc(F)cc3F)c(=O)n2NC)C=NC1SCc1ccccc1` (stereo unspecified) the figure was 80.5 to 89.9 °C.
Regarding `CCOC(=O)c1ccc(-c2coc(-c3ccccc3)n2)cc1`, the melting point is 110 to 112 °C.
`N#Cc1ccc(Nc2nc(Oc3c(Br)cc(CO)cc3Br)ccc2[N+](=O)[O-])cc1` had a melting point of 209 to 213 °C.
With `CC(C)NC(=O)C(C)(F)c1ccc(OS(=O)(=O)C(F)(F)F)cc1` (stereo unspecified) the figure was 90 to 92 °C.
Take `Nc1cccc(NC(=O)C(=O)N2CCC(Cc3ccc(F)cc3)CC2)c1`: the melting point was 117 to 120 °C.
In the case of `CN(C)[C@H]1CC[C@@H](n2cc(-c3ccc(Oc4ccccc4)cc3)c3c(N)ncnc32)CC1` it was 180 to 182 °C; in that of `Cn1c(SC(F)F)n[nH]c1=O`, 87 °C.
With `CCOC(=O)COc1ccc(CCNC(=O)C[C@H]2O[C@H](c3cccc(OC)c3OC)c3cc(Cl)ccc3N(CC(C)(C)CO)C2=O)cc1` the figure was 142 to 145 °C; with `CSc1c[nH]c2ccc(C)cc12`, 136 to 137 °C; with `C=CCc1cc(C(=O)c2ccnn2C)c(Cl)c(Cl)c1O`, 141 to 143 °C.
With `CS(=O)(=O)c1nc(OCc2ccccc2)cc(C(F)(F)F)n1` the figure was 115 to 118 °C.
As for `Cc1c(C)c2c(c(C)c1NC(=O)CC(C)(C)C)C(c1cccc(C3OCCO3)c1)CO2` (stereo unspecified), the melting point fell in the range of 168 to 169 °C.
Regarding `O=S(=O)(NC(CO)CO)c1ccc(Br)s1`, the melting point is 80 °C.
`COc1nc2cc(Cl)c(Cl)c(N(CC(=O)O)S(C)(=O)=O)c2nc1OC` showed a melting point of 203 to 206 °C.
In the case of `COc1ccc2c(c1)C(c1ccc([N+](=O)[O-])cc1)=NNC(=O)C2` it was 282 °C.
In the case of `COc1ccc2[nH]c(-c3n[nH]c4ccsc34)cc2n1` it was 234 to 236 °C; in that of `CN1C(=O)c2cscc2N(Cc2ccccc2)c2ccccc21`, 152 to 153 °C.
Regarding `Cc1c(CC(F)(F)C(F)(F)C(F)(F)F)c(-c2ccc(S(N)(=O)=O)cc2)c2n1CCC2`, the melting point came to 221 °C.
With `O=C1NC(=O)c2ccc(N3CCCCC3)cc2/C1=C/Nc1ccc(CN2CCCCC2)cc1` the figure was 211 to 212 °C; with `CC(C)OC(=O)C(C(=O)Nc1ccccc1)=C1SCS1`, 115 to 116 °C; with `COc1ccccc1/C=C/C(=O)/C=C/c1ccccc1OC`, 124 to 126 °C.
With `CN1CC(=O)N(c2ccc(C(C)(C)C)cc2)C1=S` the figure was 156 to 158 °C; with `COc1ccc(C(NCCCc2ccccc2)c2cccc(Nc3c(N)c(=O)c3=O)c2)cc1` (stereo unspecified), 178 to 180 °C.
`CN1CC(=O)N(C(c2ccccc2)c2ccccc2)C1=S` registered a melting point of 139 to 141 °C.
In the case of `COc1ccc(C(=O)N2c3ccccc3C(n3c4ccccc4c4ccccc43)CC2CCCCC(=O)O)cc1OC` (stereo unspecified) it was 226 to 228 °C; in that of `O=C(O)C1=Cc2cccc(F)c2OC1C(F)(F)F` (stereo unspecified), 198 to 210 °C; in that of `CC(C)(C)c1cc(C2SC(CC(=O)N3CCCC3)C(=O)N2CCCCl)cc(C(C)(C)C)c1O` (stereo unspecified), 193 to 194 °C.
In turn, `O=C(O)CN1C(=O)C(=Cc2c[nH]c3ccccc23)SC1=S` showed a melting point of more than 300 °C.
With `Oc1c(F)cc2c(c1F)CC(n1cc[nH]c1=S)CC2` (stereo unspecified) the figure was 258 to 260 °C; with `CCOC(=O)c1c2c3c(cccc3n1C)CCC2`, 80 to 81 °C; with `CC1=C(c2ccncc2)SC(c2ccco2)C(=O)N1` (stereo unspecified), 178 to 180 °C.
With `COc1ccc2c(c1)N(c1ccc(F)cc1)C(=O)C2NC(=O)c1cc2ccccc2cn1` (stereo unspecified) the figure was 219 to 220 °C.
In the case of `CCc1cc(C(C)=O)c(O)cc1OCc1ccc(C(=O)O)c(O)c1` it was 214 to 216 °C.
`O=C(O)c1cn(-c2ccnc3ccccc23)cc1C1CC1` returned a melting point of 195 °C.
With `NS(=O)(=O)c1cc2cc(CCBr)ccc2s1` the figure was 118 to 120 °C; with `c1cc(Cc2nnn[nH]2)cc(OCc2ncc3ccccc3n2)c1`, 129 to 131 °C; with `COc1cc2ncnc(N3CCN(C(=O)Nc4cc(Cl)nc(Cl)c4)CC3)c2cc1OC`, 267 to 270 °C.
In the case of `CC(C)Cc1cc(-c2cccc(C=O)c2)c(S(=O)(=O)NC(C)(C)C)s1` it was 96 to 98 °C; in that of `CCc1c(C)c2c(c(O)c1C/C=C(\C)CCC(=O)OC)C(=O)OC2`, 116 °C; in that of `CCN(CCCCCCCCN(CC)S(=O)(=O)c1ccc(C)cc1)S(=O)(=O)c1ccc(C)cc1`, 112 to 113 °C.
In the case of `N#Cc1nn(-c2c(Cl)cc(C(F)(F)F)cc2Cl)c(N)c1C1=CCCCC1` it was 175 to 177 °C; in that of `COC(=O)c1nccn1C(c1ccccc1)(c1ccccc1)c1ccccc1`, 186 to 188 °C; in that of `CCCCNC(=S)N1CCc2cc(S(=O)(=O)N3CC(c4ccccc4)NC3=O)ccc21` (stereo unspecified), 186 to 188 °C.
For `COC(=O)/C=C/c1cccc(Br)c1`, the melting point fell in the range of 53 to 55 °C.
In the case of `N=C(NO)c1ccc(-c2ccc(-c3ccc(C(=N)NO)o3)cc2)o1` it was more than 300 °C; in that of `O=C(O)COc1ccc(SCc2cccc(OCc3ccc(C(F)(F)F)cc3)c2)c2c1CCC2`, 145 to 146 °C.
With `O=C(O)c1ccc(-c2nc(-c3ccc(Cl)cc3)no2)c([N+](=O)[O-])c1` the figure was 257 to 258 °C; with `CC(C)(C)c1cc(Nc2ccccc2C=O)cc(C(C)(C)C)c1O`, 105 to 107 °C; with `Fc1cc2c(Nc3ccc(Cl)c(Br)c3)ncnc2cn1`, 271 to 275 °C.
Compound `CCOC(=O)C1CC(=O)c2c(OC)ccc(OC)c2C1` (stereo unspecified) had a melting point of 96 to 98 °C.
With `CC1(C)Oc2cc(Br)c(Br)cc2O1` the figure was 93 to 94 °C; with `CCOC(=O)C(=O)c1c[nH]c2c1ccc1c3ccccc3[nH]c12`, more than 295 °C; with `CN(C)C1CCc2oc3ccc([N+](=O)[O-])cc3c2C1` (stereo unspecified), 88 to 89 °C.
In the case of `N#Cc1ccc(OCc2cccc(F)c2)cc1` it was 104 to 105 °C; in that of `NC(=O)N(O)Cc1sccc1Sc1ccc(F)cc1`, 101 to 103 °C.
The compound `c1ccc(CCc2cc3cccnc3[nH]2)cc1` came in with a melting point of 157 to 158 °C.
With `CNS(=O)(=O)Cc1ccccc1Br` the figure was 72.5 to 74 °C; with `CCOC(=O)c1c(-c2ccc(C)cc2)nc2ccccn12`, 88 °C; with `CC1(C)[C@@H](C=C2CC2)[C@@H]1C(=O)O` (relative stereo), 85 °C.
In the case of `C/C=C/C1CCC2c3ccc(OCC)c(F)c3OC2C1` (stereo unspecified) it was 145 °C; in that of `CCOC(=O)c1ccc(O)c(CC)c1`, 73 to 74 °C; in that of `Cn1c(=O)c(C(=O)O)c(-c2ccccc2Cl)c2ccncc21`, more than 250 °C.
With `CC(C)c1ccccc1N/C(S)=C(\C#N)C(=O)Nc1ccc(-c2ncn(-c3ccc(OC(F)(F)F)cc3)n2)cc1` the figure was 159 to 162 °C; with `Cc1ccccc1C1CC(=O)CC(c2ccccc2C)N1C` (stereo unspecified), 155 to 157 °C.
As for `CCC1(c2cccc(OC)c2)CCCCN(C)C1=O` (stereo unspecified), the melting point lay in the range of 62 to 64 °C.
With `CNc1nc(-c2cccc(NC(=O)c3ccc(Cl)nc3)c2)c2cc(OC)c(OC)cc2n1` the figure was 157 to 159 °C; with `COC(=O)c1cc(NC2CCCCC2)c2cc(Cc3ccc(F)cc3)cnc2c1O`, 75.5 to 77.5 °C; with `O=C(O)C12CC=CCC1CSc1ccccc12` (stereo unspecified), 152 to 155 °C.
With `O=C(O)c1ccccc1Sc1ccc(F)cc1[N+](=O)[O-]` the figure was 167 to 168 °C; with `O=C(O)CCCc1cc2nc(Cl)ccc2n1S(=O)(=O)c1ccc(-c2cscn2)cc1`, 211 to 217 °C; with `O=C1N(Cc2ccncn2)c2ccccc2C12COc1cc3c(cc12)CCO3` (stereo unspecified), 158 to 160 °C.
In the case of `Cc1oc2nc(C(=O)O)nc(OCCN(C)C)c2c1C` it was 179 to 180 °C; in that of `COc1cc(C)c2c(Oc3cccc(C(F)(F)F)c3)c(OC)cc(NC(C)CCCN3C(=O)c4ccccc4C3=O)c2n1` (stereo unspecified), 117 to 119 °C.
Regarding `CCOC(=O)COc1ccc(C2=NNC(=O)CC2)cc1`, the melting point fell in the range of 127 to 129 °C.
In the case of `C=CCc1ccc2oc(C(=O)O)cc(=O)c2c1O` it was 222 to 224 °C; in that of `CCOCc1nc2c(N)nc3cc(-c4cccnc4)ccc3c2n1CCNC(=O)NC(C)C`, 194 to 196 °C.
With `CC(C)Nc1c(C#N)cnn1-c1ccc(Cl)c(Cl)c1Cl` the figure was 141 to 142 °C; with `CC(=Cc1cccc2ccccc12)[N+](=O)[O-]`, 64 to 67 °C.
With `CCOC(=O)c1cc(SCc2ccccc2)c(Cc2ccccc2)c(S(N)(=O)=O)c1` the figure was 108 to 110 °C; with `CCCCCCCc1[nH]c2cc(C(=O)OC)ccc2c1C=O`, 177 to 180 °C; with `CCn1c(=O)ccc2cnc(S(C)=O)nc21` (stereo unspecified), 202 to 203 °C.
As for `COc1cc(C(=O)c2nc(C#N)c3ccccn23)ccc1[N+](=O)[O-]`, the melting point worked out at 219 °C.
With `O=C(N[C@@H]1CONC1=O)OCc1ccccc1` the figure was 135 to 136 °C.
In the case of `CN1CCCC1=Cc1ccc(Cl)cc1` it was 63 °C; in that of `CCCCCCCCCCCCCN1CC(=O)C(C#N)=C1N`, 214 to 215 °C.

In general, melting point refers to the temperature, or range, at which the solid turns liquid.
